For data set [1] the following is noted: pig, in vivo, po; cited from earlier work.
Data set [2] can be described thus: Drug stability in simulated gastric fluid (SGF), HPLC. The following applies: for stability in SGF: SGF pH ~1.2, 37 °C, 24 h, salt forms. Here is the method: To determine drug stability at low pH, the drugs were dissolved in methanol to form a concentrated stock solution. Methanol solutions were then diluted 20-fold in simulated gastric fluid, USP without pepsin (pH ~1.2; henceforth referred to as SGF). Drug solutions were then placed in a shaker incubator (New Brunswick™ Innova® 44, Eppendorf, USA) at 37 °C and 150 r.p.m. At various times, aliquots were withdrawn and stored at −20 °C until analysis. Drug concentrations in the solution were analysed using HPLC and reported as percent of the initial concentrations.
The output signal was monitored and processed using ChemStation® software (Agilent Technologies Inc., USA). Chromatographic separation was carried out on a 50 mm × 4.6 mm EC-C18 Agilent Poroshell 120 analytical column with 2.7 µm spherical particles.
The injection volume was 5 µL, and the UV detection wavelength of 260 nm was selected.
For RPV, the stationary phase was maintained at 40 °C. The mobile phase consisted of methanol: water (pH 3.5 adjusted with 0.1% formic acid) (43:57 v/v) at a flow rate of 0.9 mL/min over a 10 min run time. The injection volume was 20 µL, and the UV detector was set at 290 nm.
For CAB, the column was maintained at 45 °C and the optimized mobile phase consisted of acetonitrile: water (pH 3.5 adjusted with 0.1% formic acid) (30:70 v/v) at flow rate of 0.8 mL/min over an 8 min run time. For analysis, 5 µL of the sample was injected on to the column, and the samples were analysed at a wavelength of 260 nm.
For tenofovir alafenamide, the column was maintained at 22 °C. The mobile phase consisted initially of acetonitrile: water (pH 3.5 adjusted with 0.1% formic acid) (100:0 v/v). […] The flow rate was 0.6 mL/min and the run time was 8 min. The injection volume was 10 µL, and the UV detection wavelength of 260 nm was selected.

Data set [3] can be described thus: Drug stability at high temperature (150 °C, 2 h), HPLC. It counts as physicochemical. The following applies: 150 °C for 2 h. The procedure: To determine the drug stability at high temperatures, the drug was weighed in a 20 mL glass vial, and placed in a convection oven at 150 °C for 2 h. Drug was dissolved in methanol, and the concentration was compared to that of an unheated standard of the same initial concentration via HPLC.

Data set [4] concerns drug-resistant HIV strains. Particulars: cited from earlier work.
Data set [5] can be described thus: Plasma pharmacokinetics of immediate release and gastric resident dosage forms in pigs. The class given is in vivo, Yorkshire pigs. The following applies: for Tmax: female, Yorkshire, pig, plasma, oral, post-dose, read-out: time of maximum plasma concentration (converted); for duration of sustained drug concentrations: single dose. The procedure: All animal experiments were approved by the Committee on Animal Care at the Massachusetts Institute of Technology. In vivo pharmacokinetics were evaluated in an unblinded fashion in female Yorkshire pigs (50–95 kg) that were randomly assigned to the immediate release or sustained release groups. Animals were fed daily in the morning and in the evening with a diet consisting of pellets (Laboratory mini-pig growler diet, 5081), with a midday snack consisting of various fruits and vegetables. Specifically, the pellets were 5/32” x ¼” length, and consisted of ground oats, alfalfa meal, wheat middlings, soybean meal, dried beet pulp, salts and other micronutrients.
To determine the oral pharmacokinetics of immediate release dosage forms of DTG and CAB, 50 mg of DTG and 30 mg of CAB were weighed and filled into gelatine capsules. For RPV pharmacokinetics, RPV base was dissolved in poly(ethylene glycol) (molecular weight—400 Da) containing 10-fold molar excess of citric acid. The concentration of RPV base in this solution was 5 mg/mL and 5 mL of the solution was dosed in a gelatine capsule. […] To determine oral pharmacokinetics from gastric retentive dosage forms, the arms of dosage forms (2–3/pig containing 350 mg DTG, 175 mg RPV or 210 mg CAB) were folded into capsule shells immediately prior to dosing. […]. The capsules containing drug or dosage form were delivered into the intestine or stomach respectively. At various time points, blood samples (0.5 mL) were collected from a central line connected to the external jugular vein or from a mammary vein into […] Vacutainer gold top tubes (Becton, Dickinson and Co. USA). Plasma samples were separated from blood by centrifugation (1800g, 10 min at 4 °C) and were stored at −80 °C. Atropine can reduce gastric acid production and gastric motility which may affect the overall drug pharmacokinetics and the gastric retention of the dosage form. […]. Drug concentrations in the plasma were analysed using UPLC-MS/MS. Plasma samples (100 µL) were spiked with 200 µL acetonitrile solution of 250 µg/mL maraviroc (internal standard) to cause precipitation. Samples were vortexed and sonicated for 10–20 min and then centrifuged (21130g, 10 min). Two hundred microliters of solution were pipetted into a 96-well plate containing 200 µL of nanopure water. Finally, 2.5 μL was injected onto the UPLC–ESI–MS system for analysis.
UPLC separation was carried out on a Waters® UPLC aligned with a Waters® Xevo–TQ-SMS mass spectrometer (Waters Ltd., UK). MassLynx® 4.1 software was used for data acquisition and analysis. Liquid chromatography separation was performed on an Acquity® UPLC CSH C18 (50 × 2.1 mm, 1.7 μm particle size) column at 50 °C. The mobile phase consisted of acetonitrile spiked with 0.1% formic acid and 10 mM ammonium formate solution. The mobile phase was flowed at a rate of 0.6 mL/min using a time and solvent gradient composition. The initial composition (100% aqueous) was held for 1 min, following which the composition was changed linearly to 20% organic phase over the next 0.25 min. The composition was then brought to 100% organic over 1.25 min, held for 0.5 min and finally shifted to the initial composition and held constant until the end of the run for column equilibration. The total run time was 4 min and sample injection volume was 2.5 μL. The mass spectrometer was operated in the multiple reaction monitoring (MRM) mode. Sample introduction and ionization was by electrospray ionization (ESI) in the positive ion mode. DTG, RPV and CAB were analysed at mass-to-charge ratios of […] respectively. Stock solutions of DTG, RPV, CAB, and an internal standard maraviroc were prepared in methanol at a concentration of 500 μg/mL. A ten-point calibration curve was prepared ranging from 2.5–5000 ng/mL. Quality control samples were prepared in a similar procedure using an independent stock solution at three concentrations (5, 50 and 500 ng/mL). […]

Data set [6] relates to HIV reference strain NL4-3. Set-up: method as in ref 46,55–57 (a number printed in a supplementary file, which may have a reference list of its own: not looked up in the article's list). The following applies: wild-type virus; cited from earlier work.
The conditions of data set [7]: humans receiving the usual oral dose; stated by Reviewer 1, no reference; cited from earlier work.
On the set-up of data set [8]: method as in ref 58 (a number printed in a supplementary file, which may have a reference list of its own: not looked up in the article's list). The following applies: cited from earlier work.
Setting [9] is: immediate release formulation, pigs.
Setting [10] is: immediate release formulation, pigs, n = 3.

Like-named read-outs stand apart in the source and are kept apart here. A value given as a limit tells only on which side of the number the result lay.

What is called IC50 is the concentration that gives 50% inhibition. What is called Cmax is the maximum level reached in the sampled fluid or tissue.

Consider `C[C@]12C=CC(=O)C=C1CC[C@@H]1[C@@H]2[C@@H](O)C[C@@]2(C)[C@H]1CC[C@]2(O)C(=O)CO` [prednisolone], for which the “concentrations achieved in pigs relative to those observed in humans” value in data set [1] is “about one tenth”.
Regarding `Cc1cc(/C=C/C#N)cc(C)c1Nc1ccnc(Nc2ccc(C#N)cc2)n1` [RPV, rilpivirine], the “stability in SGF” value in data set [2] is “stable”. In addition, in data set [3], the “stability at elevated temperature” value was “stable”. Moreover, the “Fold change in IC50 (ρ)” value in data set [4] (mutation E138K/M184I) is recorded as 3.20; in data set [4] (mutation E138K/M230L), 22.60; in data set [4] (mutation E138K) it was 2.30; in data set [4] (mutation K101E/E138K), 3.20; in data set [4] (mutation K101E/M184I), 5.80; in data set [4] (mutation K101E), 3.00. Also, the “Fold change in IC50 (ρ)” value in data set [4] (mutation K101P) is 102.13; in data set [4] (mutation K103N), 1.23; in data set [4] (mutation M184I) it was 1.50; in data set [4] (mutation M230L) it was 3.40; in data set [4] (mutation Y181C/Y188L), 30.20; in data set [4] (mutation Y181C) it was 1.72. Also, the entries for the “Fold change in IC50 (ρ)” value in data set [4] (mutation Y181I), in data set [4] (mutation Y181V) and in data set [4] (mutation Y188L) were 152.91, 31.00 and 6.00, respectively. Further, the “Fractional change in slope (σ)” value is -0.21 in data set [4] (mutation K101P), 0.12 in data set [4] (mutation K103N), -0.48 in data set [4] (mutation Y181C) and -0.10 in data set [4] (mutation Y181I). In data set [5] (175 mg, gastric resident dosage form, pigs), the Tmax was 24 h. For the same compound, the “maintenance of plasma concentrations” value in data set [5] (gastric resident dosage form, pigs, entirety of the study) is “comparable to the Cmax were maintained for the entirety of the study”. For the same compound, the “duration of sustained drug concentrations” value in data set [5] (gastric resident system) was “up to 1 week”. In addition, the “time for plasma concentration to drop below the limit of detection” value in data set [5] (setting [9]) is on record as at most 2 days. Further, in data set [5] (setting [10]), the “average maximum plasma concentration” value is around 25 ng/mL. In addition, in data set [6], the IC50 is 105 nM. Also, the “m (slope parameter of Hill curve)” value in data set [6] was 1.83. For the same compound, the “usual Cmax in humans” value in data set [7] was 200 ng/mL. In addition, the “Half-life, τ1/2” value in data set [8] is 50 h. For the same compound, the Cmax in data set [8] (maximum plasma concentration at steady state, perfect adherence) is 510 nM.
In the case of `C[C@H]1CO[C@@H]2Cn3cc(C(=O)NCc4ccc(F)cc4F)c(=O)c(O)c3C(=O)N12` [CAB, cabotegravir], the “stability in SGF” value in data set [2] is given as “stable”. Further, in data set [3], the “stability at elevated temperature” value is “stable”. In data set [5] (setting [9]), the Tmax was 6 h, the “day at or after which no drug was detected in plasma” value was found to be 3 days and the “time for which drug was detectable in plasma” value is “up to 2 days”. Moreover, in data set [5] (gastric resident system vs immediate release, pigs), the “average peak plasma concentration, fold lower than immediate release” value is reported as ~ 2.5 fold. Moreover, the “average (sustained) plasma drug concentrations throughout the week following dosing” value in data set [5] (gastric resident system, pigs, n = 3) fell in the range of 200 to 500 ng/mL. Besides, the “duration of sustained drug concentrations” value in data set [5] (gastric resident system) is given as “up to 1 week”. Also, in data set [5] (setting [10]), the “average maximum plasma concentration” value was around 1400 ng/mL. Besides, the “usual Cmax in humans” value in data set [7] is 2800 ng/mL.
The compound `CC(C)OC(=O)[C@H](C)N[P@](=O)(CO[C@H](C)Cn1cnc2c(N)ncnc21)Oc1ccccc1` [TAF, tenofovir alafenamide] displayed a drug remaining stable in data set [2] (after 10 h of incubation in SGF, 37 °C) of 10%.
